Assay results from paper PMC3128102, “A Single Sex Pheromone Receptor Determines Chemical Response Specificity of Sexual Behavior in the Silkmoth Bombyx mori” (PLoS Genetics, 2011).
pEC50: −log10 of the molar value.

Assays:
[1] = biological target: T1, PxOR1 coexpressed with BmOR2 (Plutella xylostella, UniProt B5MEK0); test: electrophysiology, agonist-induced current in Xenopus oocytes; type: cell-based; conditions: PxOR1 with Bombyx mori co-receptor BmOR2, applied sequentially to same oocyte, n = 10, read-out: 50% effective concentration
T1 construct: coexpressed in Xenopus oocytes; mixed-species heteromeric OR complex, PxOR1 of Plutella xylostella with BmOR2 of Bombyx mori; with Odorant receptor coreceptor (Bombyx mori)
T1 sequence (B5MEK0 1-422): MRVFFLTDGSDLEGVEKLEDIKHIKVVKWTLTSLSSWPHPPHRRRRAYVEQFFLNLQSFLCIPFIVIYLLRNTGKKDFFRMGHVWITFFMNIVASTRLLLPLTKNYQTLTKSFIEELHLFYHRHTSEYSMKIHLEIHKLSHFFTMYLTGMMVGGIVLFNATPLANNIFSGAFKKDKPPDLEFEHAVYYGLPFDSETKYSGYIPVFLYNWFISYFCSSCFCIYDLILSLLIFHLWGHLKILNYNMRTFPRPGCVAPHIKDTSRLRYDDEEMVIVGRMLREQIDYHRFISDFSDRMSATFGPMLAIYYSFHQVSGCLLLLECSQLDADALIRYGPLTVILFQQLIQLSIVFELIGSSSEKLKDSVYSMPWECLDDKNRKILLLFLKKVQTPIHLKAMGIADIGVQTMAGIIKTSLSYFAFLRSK
Excerpt: electrophysiology, agonist-induced current in Xenopus oocytes on PxOR1 coexpressed with BmOR2 | PxOR1 with PxOR83 and PxOR1 with BmOR2, respectively

[2] = biological target: T2, PxOR1 coexpressed with PxOR83 (Plutella xylostella, UniProt B5MEK0); test: as above; type: cell-based; conditions: read-out: 50% effective concentration
T2 construct: coexpressed in Xenopus oocytes; heteromeric OR complex; with Odorant receptor coreceptor
T2 sequence (B5MEK0 1-422): T1 sequence (B5MEK0 1-422)
T2 sequence (D0EZE1 1-471 partner): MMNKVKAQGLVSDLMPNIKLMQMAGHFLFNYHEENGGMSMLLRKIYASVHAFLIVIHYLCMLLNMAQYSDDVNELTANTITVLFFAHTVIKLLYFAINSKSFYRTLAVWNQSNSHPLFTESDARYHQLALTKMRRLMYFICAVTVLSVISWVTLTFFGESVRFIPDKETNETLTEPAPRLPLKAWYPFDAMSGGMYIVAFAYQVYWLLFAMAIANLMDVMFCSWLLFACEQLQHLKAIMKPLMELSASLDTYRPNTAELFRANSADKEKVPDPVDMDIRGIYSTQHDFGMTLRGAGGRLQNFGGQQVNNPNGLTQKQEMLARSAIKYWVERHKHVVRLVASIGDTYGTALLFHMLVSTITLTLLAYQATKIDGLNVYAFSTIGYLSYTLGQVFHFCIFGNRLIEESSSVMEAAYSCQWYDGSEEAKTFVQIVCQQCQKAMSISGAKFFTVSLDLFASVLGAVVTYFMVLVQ

CCCC/C=C\CCCCCCCCCC=O [Z11-16:Ald, (Z)-11-hexadecenal]
pEC50 [1]: 5.92
pEC50 [2]: 6.38
